Where two headings read alike, the source gives them in different places.
Assays:
β-lactamase TEM1 = target: T1, β-lactamase TEM1 (Escherichia coli, UniProt P62593); assay: Inhibition of isolated β-lactamase Tem-1 (Nitrocefin hydrolysis); type: biochemical, E.coli 250HT21; details: 100 μM Nitrocefin, 50 mM sodium phosphate buffer pH7.0, 37° C.
T1 construct: The β-lactamases are isolated from bacterial strains which are resistant to penicillins and cephalosporins; endogenous in cells; host or cells: E. coli 250HT21 (natural producer; French-press lysate, 100,000 g supernatant)
Description: (§1) A. Preparation of the β-lactamases Tem-1 and P99
(§2) The β-lactamases are isolated from bacterial strains which are resistant to penicillins and cephalosporins (Tem1 and P99 are produced by E.coli 250HT21 and E.Cloacae 293HT6 respectively).
(§3) The bacteria are cultured at 37° C. in heart-brain culture at 37 g/l (DIFCO). They are harvested at the end of the exponential phase, cooled down and centrifuged. The bacterial pellets are taken up in sodium phosphate buffer 50 mM, pH 7.0 and centrifuged again. The bacteria are taken up in two volumes of the same buffer and lyzed using a French-Press maintained at 4° C. After centrifugation for 1 hour at 100,000 g, at 4° C., the supernatants containing the soluble fraction of the bacterial extracts are recovered and frozen at −80° C.
(§4) The method uses Nitrocefin (OXOID), cephalosporin chromogene as substrate, of which the product hydrolyzed by the B-lactamases is red and absorbs at 485 nm. Beta-lactamase activity is determined kinetically by measurement of the absorbance variation at 485 nm resulting from the hydrolysis of the substrate using a plate spectrophotometer (Spectra Max More Molecular Devices). The experiments are carried out at 37° C. The quantity of enzyme was normalized and the measurements are carried out at initial speed.
(§5) Two measurements were carried out, without preincubation and with preincubation of the enzyme and inhibitor (5 mn), in order to test the irreversibility of the reaction. The products are tested at 6 or 8 concentrations in duplicate. The reaction mixture contains 100 μM of Nitrocefin and 50 mM sodium phosphate buffer pH7.0.
(§6) The hydrolysis speeds are measured with and without inhibitor. The concentration of inhibitor which inhibits by 50% the hydrolysis reaction of Nitrocefin by the enzyme (CI50) is determined. The data is processed using GraFit software (Erathycus Software).

E. coli 250HT21 (Tem1) = assay: MIC, micro-dilution in liquid medium, β-lactamine with product at 5 mg/l; type: cell-based; details: compound at 5 mg/l, 24 hours at 37° C.; for MIC of Piperacillin in combination with the compound: Trial 2, 250HT21 Tem1; for MIC of Cefotaxime in combination with the compound: Trial 2, 250HT21 E. coli Tem1
Description: (§7) The operation is carried out as follows, using the so-called micro-dilution in liquid medium method.
(§8) A series of concentrations of the β-lactamine is prepared in the presence of a constant concentration (5 mg/l) of the product to be studied, each is then seeded with various bacterial strains.
(§9) After incubation for 24 hours in a heating chamber at 37° C., the growth inhibition is evaluated by the absence of any bacterial development, which allows the minimal inhibitory concentrations (MIC) for each strain to be determined, expressed in milligrams/l.

[1] = tested on: E. cloacae 293HT6 (Class C); assay: as above; type: cell-based; details: compound at 5 mg/l, 24 hours at 37° C.; for MIC of Piperacillin in combination with the compound: Trial 9, 293HT6 Class; for MIC of Cefotaxime in combination with the compound: Trial 9, 293HT6 E. cloacae Class C
Description: as §7, §8, §9

E. coli 250SJ1 (Tem7) = assay: as above; type: cell-based; details: compound at 5 mg/l, 24 hours at 37° C.; for MIC of Piperacillin in combination with the compound: Trial 5, 250SJ1 Tem7; for MIC of Cefotaxime in combination with the compound: Trial 5, 250SJ1 E. coli Tem7
Description: as §7, §8, §9

[2] = tested on: P. aeruginosa 391HT7 (PSE); assay: as above; type: cell-based; details: compound at 5 mg/l, 24 hours at 37° C.; for MIC of Piperacillin in combination with the compound: Trial 11, 391HT7 PSE; for MIC of Cefotaxime in combination with the compound: Trial 11, 391HT7 P. aeruginosa PSE
Description: as §7, §8, §9

Serratia 301HT6 = assay: as above; type: cell-based; details: compound at 5 mg/l; Trial 10, 301HT6 Serratia; 24 hours at 37° C.
Description: as §7, §8, §9

[3] = tested on: S. aureus 011GO66 (PeniR); assay: as above; type: cell-based; details: compound at 5 mg/l, 24 hours at 37° C.; for MIC of Piperacillin in combination with the compound: Trial 1, 011GO66 peniR; for MIC of Cefotaxime in combination with the compound: Trial 1, 011GO66 S. aureus PeniR
Description: as §7, §8, §9

E. coli 250BE1 (SHV4) = assay: as above; type: cell-based; details: compound at 5 mg/l, 24 hours at 37° C.; for MIC of Piperacillin in combination with the compound: Trial 7, 250BE1 SHV4; for MIC of Cefotaxime in combination with the compound: Trial 7, 250BE1 E. coli SHV4
Description: as §7, §8, §9

[4] = tested on: E. coli 250HT23 (Class D); assay: as above; type: cell-based; details: compound at 5 mg/l, 24 hours at 37° C.; for MIC of Piperacillin in combination with the compound: Trial 8, 250HT23 Class D; for MIC of Cefotaxime in combination with the compound: Trial 8, 250HT23 E. coli Class D
Description: as §7, §8, §9

E. coli 250HT26 (SHV1) = assay: as above; type: cell-based; details: compound at 5 mg/l, 24 hours at 37° C.; for MIC of Piperacillin in combination with the compound: Trial 6, 250HT26 SHV1; for MIC of Cefotaxime in combination with the compound: Trial 6, 250HT26 E. coli SHV1
Description: as §7, §8, §9

[5] = tested on: P. aeruginosa 391HT8 (PSE); assay: as above; type: cell-based; details: compound at 5 mg/l, 24 hours at 37° C.; for MIC of Piperacillin in combination with the compound: Trial 12, 391HT8 PSE; for MIC of Cefotaxime in combination with the compound: Trial 12, 391HT8 P. aeruginosa PSE
Description: as §7, §8, §9

E. coli 250HT22 (Tem2) = assay: as above; type: cell-based; details: compound at 5 mg/l, 24 hours at 37° C.; for MIC of Piperacillin in combination with the compound: Trial 3, 250HT22 Tem2; for MIC of Cefotaxime in combination with the compound: Trial 3, 250HT22 E. coli Tem2
Description: as §7, §8, §9

β-lactamase P99 = target: T2, β-lactamase P99 (Enterobacter cloacae, UniProt P05364); assay: biochemical
T2 construct: The β-lactamases are isolated from bacterial strains which are resistant to penicillins and cephalosporins; endogenous in cells; host or cells: Enterobacter cloacae 293HT6 (natural producer; French-press lysate, 100,000 g supernatant)
Description: as §1, §2, §3, §4, §5, §6

E. coli 250CF1 (Tem3) = assay: microbe, parasite or virus in culture; type: cell-based; details: compound at 5 mg/l, 24 hours at 37° C.; for MIC of Piperacillin in combination with the compound: Trial 4, 250CF1 Tem3; for MIC of Cefotaxime in combination with the compound: Trial 4, 250CF1 E. coli Tem3
Description: as §7, §8, §9

[6] = 100 μM Nitrocefin, 50 mM sodium phosphate buffer pH7.0, 37° C., read-out: IC50 nM/P99

T2 sequence (P05364 21-381): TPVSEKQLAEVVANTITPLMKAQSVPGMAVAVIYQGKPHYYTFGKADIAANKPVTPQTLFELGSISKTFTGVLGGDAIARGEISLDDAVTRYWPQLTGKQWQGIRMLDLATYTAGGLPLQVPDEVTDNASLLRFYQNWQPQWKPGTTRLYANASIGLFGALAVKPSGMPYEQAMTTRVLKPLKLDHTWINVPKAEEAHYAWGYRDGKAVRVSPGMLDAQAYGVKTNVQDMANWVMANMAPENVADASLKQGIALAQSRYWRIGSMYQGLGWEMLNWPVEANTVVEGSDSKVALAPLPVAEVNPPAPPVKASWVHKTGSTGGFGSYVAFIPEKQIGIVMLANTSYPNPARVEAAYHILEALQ
T1 sequence (P62593 24-286 limits assumed): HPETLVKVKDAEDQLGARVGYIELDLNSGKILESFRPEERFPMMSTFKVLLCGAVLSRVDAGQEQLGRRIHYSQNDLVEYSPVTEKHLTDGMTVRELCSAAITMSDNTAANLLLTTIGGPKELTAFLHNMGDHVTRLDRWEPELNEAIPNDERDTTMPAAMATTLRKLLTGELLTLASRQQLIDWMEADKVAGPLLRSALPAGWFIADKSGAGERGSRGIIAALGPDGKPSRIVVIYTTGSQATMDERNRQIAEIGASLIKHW

| SMILES | IC50 (β-lactamase TEM1) [nM] | MIC of Piperacillin in combination with the compound (E. coli 250HT21 (Tem1)) [µg/mL] | MIC of Piperacillin in combination with the compound [1] [µg/mL] | MIC of Piperacillin in combination with the compound (E. coli 250SJ1 (Tem7)) [µg/mL] | MIC of Piperacillin in combination with the compound [2] [µg/mL] | MIC of Piperacillin in combination with the compound (Serratia 301HT6) [µg/mL] | MIC of Piperacillin in combination with the compound [3] [µg/mL] | MIC of Piperacillin in combination with the compound (E. coli 250BE1 (SHV4)) [µg/mL] | MIC of Piperacillin in combination with the compound [4] [µg/mL] | MIC of Piperacillin in combination with the compound (E. coli 250HT26 (SHV1)) [µg/mL] | MIC of Piperacillin in combination with the compound [5] [µg/mL] | MIC of Piperacillin in combination with the compound (E. coli 250HT22 (Tem2)) [µg/mL] | IC50 (β-lactamase P99; [6]) [nM] | MIC of Piperacillin in combination with the compound (E. coli 250CF1 (Tem3)) [µg/mL] | MIC of Cefotaxime in combination with the compound (E. coli 250HT21 (Tem1)) | MIC of Cefotaxime in combination with the compound [1] | MIC of Cefotaxime in combination with the compound (E. coli 250SJ1 (Tem7)) | MIC of Cefotaxime in combination with the compound [2] [µg/mL] | MIC of Cefotaxime in combination with the compound (Serratia 301HT6) | MIC of Cefotaxime in combination with the compound [3] [µg/mL] | other results |
| --- | --- | --- | --- | --- | --- | --- | --- | --- | --- | --- | --- | --- | --- | --- | --- | --- | --- | --- | --- | --- | --- |
| NC(=O)C(NC(=O)[C@H]1CC[C@@H]2CN1C(=O)N2OS(=O)(=O)[O-])c1ccccc1.[Na+] (relative stereo) [Example 47, sodium salt of trans-N-(2-amino-2-oxo-1-phenylethyl)-7-oxo-6-(sulphooxy)-1,6-diazabicyclo[3.2.1]octane-2-carboxamide] | 18 | 2.5 | >40 | 40 | >40 | 1.2 | 0.6 | 5 | 10 | 2.5 | >40 | 20 | 43 | 5 | – | – | – | – | – | – | – |
| O=C(NCc1ccccn1)[C@H]1CC[C@@H]2CN1C(=O)N2OS(=O)(=O)[O-].[Na+] (relative stereo) [Example 35, sodium salt of trans-7-oxo-N-(2-pyridinylmethyl)-6-(sulphooxy)-1,6-diazabicyclo[3.2.1]octane-2-carboxamide] | 53 | 2.5 | 5 | 5 | >40 | 1.2 | 1.2 | 20 | 10 | 5 | >40 | 20 | 56 | 10 | <=0.04 μg/ml | 0.6 µg/mL | <=0.04 μg/ml | 20 | <=0.04 μg/ml | 1.2 | MIC of Cefotaxime in combination with the compound (E. coli 250BE1 (SHV4)): 0.08 µg/mL; MIC of Cefotaxime in combination with the compound [4]: <=0.04 μg/ml; MIC of Cefotaxime in combination with the compound (E. coli 250HT26 (SHV1)): <=0.04 μg/ml; MIC of Cefotaxime in combination with the compound [5]: 20 µg/mL; MIC of Cefotaxime in combination with the compound (E. coli 250HT22 (Tem2)): <=0.04 μg/ml; MIC of Cefotaxime in combination with the compound (E. coli 250CF1 (Tem3)): 0.15 µg/mL |
| NC(=O)[C@@H]1CC[C@@H]2CN1C(=O)N2OS(=O)(=O)O (relative stereo) [Example 33, trans-7-oxo-6-(sulphooxy)-1,6-diazabicyclo[3.2.1]octane-2-carboxamide] | – | 0.3 | 0.6 | 0.6 | >40 | 0.6 | 1.2 | 1.2 | 2.5 | 1.2 | 10 | 0.6 | – | 1.2 | <=0.04 μg/ml | <=0.04 μg/ml | <=0.04 μg/ml | 20 | 0.08 µg/mL | 2.5 | MIC of Cefotaxime in combination with the compound (E. coli 250BE1 (SHV4)): <=0.04 μg/ml; MIC of Cefotaxime in combination with the compound [4]: <=0.04 μg/ml; MIC of Cefotaxime in combination with the compound (E. coli 250HT26 (SHV1)): <=0.04 μg/ml; MIC of Cefotaxime in combination with the compound [5]: 20 µg/mL; MIC of Cefotaxime in combination with the compound (E. coli 250HT22 (Tem2)): <=0.04 μg/ml; IC50 (β-lactamase P99): 330 nM; MIC of Cefotaxime in combination with the compound (E. coli 250CF1 (Tem3)): <=0.04 μg/ml |

Source: US7612087B2, “Heterocyclic compounds as inhibitors of beta-lactamases” (Novexel, priority 2002, dated 2009)
